Tests used:
Assay in all cases: NCI-60 one-dose screening
Format in all cases: cell-based
786-0 = settings: Homo sapiens, 786-0, Renal Cancer, read-out: GI (%)
A498 = settings: Homo sapiens, A498, Renal Cancer, read-out: GI (%)
A549/ATCC = settings: Homo sapiens, Non-Small Cell Lung Cancer, read-out: GI (%)
ACHN = settings: Homo sapiens, Renal Cancer, read-out: GI (%)
CCRF-CEM = settings: Homo sapiens, Leukemias, read-out: GI (%)
COLO 205 = settings: Homo sapiens, COLO 205, Colon Cancer, read-out: GI (%)
EKVX = settings: Homo sapiens, Non-Small Cell Lung Cancer, read-out: GI (%)
HCC-2998 = settings: Homo sapiens, HCC-2998, Colon Cancer, read-out: GI (%)
HCT-15 = settings: Homo sapiens, HCT-15, Colon Cancer, read-out: GI (%)
HL-60(TB) = settings: Homo sapiens, Leukemias, read-out: GI (%)
HOP-92 = settings: Homo sapiens, HOP-92, Non-Small Cell Lung Cancer, read-out: GI (%)
HS 578T = settings: Homo sapiens, Breast Cancer, read-out: GI (%)
HT29 = settings: Homo sapiens, HT-29, HT29, Colon Cancer, read-out: GI (%)
KM12 = settings: Homo sapiens, KM12, Colon Cancer, read-out: GI (%)
LOX IMVI = settings: Homo sapiens, Melanoma, read-out: GI (%)
MCF7 = settings: Homo sapiens, MCF7, 10 μM; MCF7, Breast Cancer; read-out: GI (%)
MDA-MB-435 = settings: Homo sapiens, MDA-MB-435, Melanoma, read-out: GI (%)
MOLT-4 = settings: Homo sapiens, MOLT-4, Leukemias, read-out: GI (%)
NCI-H23 = settings: Homo sapiens, NCI-H23, Non-Small Cell Lung Cancer, read-out: GI (%)
NCI-H322M = settings: Homo sapiens, Non-Small Cell Lung Cancer, read-out: GI (%)
NCI-H460 = settings: Homo sapiens, NCI-H460, Non-Small Cell Lung Cancer, read-out: GI (%)
NCI/ADR-RES = settings: Homo sapiens, Ovarian Cancer, read-out: GI (%)
OVCAR-3 = settings: Homo sapiens, OVCAR-3, 10 μM; OVCAR-3, Ovarian Cancer; read-out: GI (%)
OVCAR-4 = settings: Homo sapiens, OVCAR-4, 10 μM; OVCAR-4, Ovarian Cancer; read-out: GI (%)
OVCAR-5 = settings: Homo sapiens, OVCAR-5, Ovarian Cancer, read-out: GI (%)
OVCAR-8 = settings: Homo sapiens, OVCAR-8, Ovarian Cancer, read-out: GI (%)
PC-3 = settings: Homo sapiens, PC-3, Prostate Cancer, read-out: GI (%)
RPMI-8226 = settings: Homo sapiens, RPMI-8226, Leukemias, read-out: GI (%)
SF-268 = settings: Homo sapiens, SF-268, CNS Cancer, read-out: GI (%)
SF-539 = settings: Homo sapiens, SF-539, CNS Cancer, read-out: GI (%)
SK-MEL-2 = settings: Homo sapiens, SK-MEL-2, Melanoma, read-out: GI (%)
SNB-19 = settings: Homo sapiens, SNB-19, CNS Cancer, read-out: GI (%)
SR = settings: Homo sapiens, Leukemias, read-out: GI (%)
TK-10 = settings: Homo sapiens, TK-10, Renal Cancer, read-out: GI (%)
U251 = settings: Homo sapiens, U-251, U251, CNS Cancer, read-out: GI (%)
UO-31 = settings: Homo sapiens, UO-31, Renal Cancer, read-out: GI (%)

Molecule `COc1ccc(COc2ccc(/C=C3/C(=O)Nc4ccc(Cl)cc43)cc2OC)cc1` [6i] has an inhibition at 10 µM (786-0) of 0.79%, an inhibition at 10 µM (A498) of -6.49% and an inhibition at 10 µM (A549/ATCC) of -1.42%. The inhibition at 10 µM (ACHN) was 5.13%, the inhibition at 10 µM (CCRF-CEM) was 1.43% and the inhibition at 10 µM (COLO 205) was -10.1%. It also gave an inhibition at 10 µM (EKVX) of 11.4%, an inhibition at 10 µM (HCC-2998) of -4.23% and an inhibition at 10 µM (HCT-15) of 3.59%. The inhibition at 10 µM (HL-60(TB)) was 0.37%, the inhibition at 10 µM (HOP-92) was 7.13% and the inhibition at 10 µM (HS 578T) was -2.52%. The inhibition at 10 µM (HT29) was -8.29%, the inhibition at 10 µM (KM12) was 0.58% and the inhibition at 10 µM (LOX IMVI) was 5.6%. The inhibition at 10 µM (MCF7) was 22.3%, the inhibition at 10 µM (MDA-MB-435) was -5.33% and the inhibition at 10 µM (MOLT-4) was 4.03%. It also gave an inhibition at 10 µM (NCI-H23) of 3.99%, an inhibition at 10 µM (NCI-H322M) of 7.01% and an inhibition at 10 µM (NCI-H460) of -2%. For the same molecule, the inhibition at 10 µM (NCI/ADR-RES) was 3.06%, the inhibition at 10 µM (OVCAR-3) was -1.86% and the inhibition at 10 µM (OVCAR-4) was -0.39%. The inhibition at 10 µM (OVCAR-5) was 1.66%, the inhibition at 10 µM (OVCAR-8) was 1.18% and the inhibition at 10 µM (PC-3) was 11.3%. It also gave an inhibition at 10 µM (RPMI-8226) of 1.88%, an inhibition at 10 µM (SF-268) of -0.7% and an inhibition at 10 µM (SF-539) of -1.4%. The inhibition at 10 µM (SK-MEL-2) was -5.26%, the inhibition at 10 µM (SNB-19) was 2.61% and the inhibition at 10 µM (SR) was 24.1%. For the same molecule, the inhibition at 10 µM (TK-10) was -18.4%, the inhibition at 10 µM (U251) was -2.19% and the inhibition at 10 µM (UO-31) was 30.9%.

In the case of `COc1cc(C=C2C(=O)Nc3ccc(Cl)cc32)ccc1O` (mixture of isomers) [5b], the inhibition at 10 µM (786-0) is reported as 0.79%, the inhibition at 10 µM (A498) is reported as 25.6% and the inhibition at 10 µM (A549/ATCC) is reported as 3.56%. The inhibition at 10 µM (ACHN) was 26%, the inhibition at 10 µM (CCRF-CEM) was 22.6% and the inhibition at 10 µM (COLO 205) was -11.7%. It also gave an inhibition at 10 µM (EKVX) of 86.3%, an inhibition at 10 µM (HCC-2998) of -1.13% and an inhibition at 10 µM (HCT-15) of 25.2%. The inhibition at 10 µM (HL-60(TB)) was 23.1%, the inhibition at 10 µM (HOP-92) was 34.6% and the inhibition at 10 µM (HS 578T) was 80.1%. The inhibition at 10 µM (HT29) was -0.33%, the inhibition at 10 µM (KM12) was 7.96% and the inhibition at 10 µM (LOX IMVI) was 22.5%. For the same molecule, the inhibition at 10 µM (MCF7) was 57.5%, the inhibition at 10 µM (MDA-MB-435) was 19.4% and the inhibition at 10 µM (MOLT-4) was 23.1%. The inhibition at 10 µM (NCI-H23) was 15.6%, the inhibition at 10 µM (NCI-H322M) was 14.1% and the inhibition at 10 µM (NCI-H460) was 7.4%. The inhibition at 10 µM (NCI/ADR-RES) was 9.66%, the inhibition at 10 µM (OVCAR-3) was 25.8% and the inhibition at 10 µM (OVCAR-4) was 18.8%. It also gave an inhibition at 10 µM (OVCAR-5) of 0.41%, an inhibition at 10 µM (OVCAR-8) of 13.8% and an inhibition at 10 µM (PC-3) of 13.8%. For the same molecule, the inhibition at 10 µM (RPMI-8226) was 23.6%, the inhibition at 10 µM (SF-268) was 29.1% and the inhibition at 10 µM (SF-539) was 46.4%. For the same molecule, the inhibition at 10 µM (SK-MEL-2) was 6.25%, the inhibition at 10 µM (SNB-19) was 20.7% and the inhibition at 10 µM (SR) was 47.9%. The inhibition at 10 µM (TK-10) was -56.3%, the inhibition at 10 µM (U251) was 39.8% and the inhibition at 10 µM (UO-31) was 45%.

Work on `COc1cc(/C=C2/C(=O)Nc3cc(Cl)ccc32)ccc1OCc1ccccc1` [6k] yielded an inhibition at 10 µM (786-0) of -8.46%, an inhibition at 10 µM (A498) of -15.1% and an inhibition at 10 µM (A549/ATCC) of -8.61%. The inhibition at 10 µM (ACHN) was 7.71%, the inhibition at 10 µM (CCRF-CEM) was -1.12% and the inhibition at 10 µM (COLO 205) was -16.6%. The inhibition at 10 µM (EKVX) was 17.2%, the inhibition at 10 µM (HCC-2998) was 0.85% and the inhibition at 10 µM (HCT-15) was 6.47%. The inhibition at 10 µM (HL-60(TB)) was -20.2%, the inhibition at 10 µM (HOP-92) was 4.54% and the inhibition at 10 µM (HS 578T) was 0.08%. For the same molecule, the inhibition at 10 µM (HT29) was -1.24%, the inhibition at 10 µM (KM12) was 1.29% and the inhibition at 10 µM (LOX IMVI) was 16.1%. The inhibition at 10 µM (MCF7) was 31%, the inhibition at 10 µM (MDA-MB-435) was -4.45% and the inhibition at 10 µM (MOLT-4) was 4.75%. For the same molecule, the inhibition at 10 µM (NCI-H23) was 2.27%, the inhibition at 10 µM (NCI-H322M) was 0.99% and the inhibition at 10 µM (NCI-H460) was 1.83%. It also gave an inhibition at 10 µM (NCI/ADR-RES) of -3.53%, an inhibition at 10 µM (OVCAR-3) of -3.45% and an inhibition at 10 µM (OVCAR-4) of 10.4%. The inhibition at 10 µM (OVCAR-5) was 3.05%, the inhibition at 10 µM (OVCAR-8) was 0.19% and the inhibition at 10 µM (PC-3) was 6.35%. For the same molecule, the inhibition at 10 µM (RPMI-8226) was -4.86%, the inhibition at 10 µM (SF-268) was -1.04% and the inhibition at 10 µM (SF-539) was 5.85%. The inhibition at 10 µM (SK-MEL-2) was -5.05%, the inhibition at 10 µM (SNB-19) was 1.7% and the inhibition at 10 µM (SR) was 6.78%. For the same molecule, the inhibition at 10 µM (TK-10) was -55.6%, the inhibition at 10 µM (U251) was -7.73% and the inhibition at 10 µM (UO-31) was 16.2%.

Reference: PMC9948168, “Vanillin-Based Indolin-2-one Derivative Bearing a Pyridyl Moiety as a Promising Anti-Breast Cancer Agent via Anti-Estrogenic Activity” (ACS Omega, 2023)
